Test results as given in patent US20030176456A1, “Methods for reducing alcohol cravings in chronic alcoholics” (priority 2001, published 2003).

Assays:
[1] = test system: GABAA α2β3γ2 receptors; test: Xenopus oocyte expression assay, modulation of GABA current; type: cell-based, rat; settings: saturating 1-10 μM modulator with EC50 GABA (50 μM); mean±S.D.
[2] = test system: GABAA α4β3γ2 receptors; test: as above; type: cell-based, rat
[3] = target: wild type BDZ receptors (cerebral cortical membranes); test: Radioligand displacement at cerebral cortical membranes; type: binding; settings: read-out: Displacement of [3H] flunitrazepam in vitro, IC50; rat cerebral cortical membranes; mean of three or more experiments
Procedure: [^3H] […] In brief, rats were sacrificed by decapitation, and the cerebral cortex removed. […] Tissue was resuspended in an equal volume of buffer and recentrifuged. This procedure was repeated a total of three times and the tissue resuspended in 50 volumes of buffer. Incubations (1 mL) consisted of tissue (0.3 mL), drug solution (0.1 mL), buffer (0.5 mL) and radioligand (0.1 mL). […] The IC50 values were estimated using Hill plots.

[4] = test system: squirrel monkeys; settings: Rowlett et al., unpublished observation; cited from earlier work
[5] = target: T1, α2 GABAA receptor (Homo sapiens, UniProt P18507+P47869); test: Modulation of GABA induced currents in HEK cells; type: cell-based
T1 construct: expressed in transfected cells; host or cells: HEK cells
Procedure: (§1) In this study, we assessed the functional capacity of βCCt to competitively antagonize the anxiolytic versus the sedative properties of the prototypical BDZ, chlordiazepoxide.
(§2) FIGS. 21-26 represent the molecular biology data in α1-α6 GABAA receptors. […] In other words, βCCt behaves like chlordiazepoxide at the anxiety receptors. It is important to note that these effects occur at 50-100 μM, and would most likely be observed at moderate doses.

[6] = target: T2, α1 GABAA receptor (Homo sapiens, UniProt P14867+P18507); test: Modulation of GABA induced currents in HEK cells; type: cell-based; settings: 0.1 to 100 μM
T2 construct: expressed in transfected cells; host or cells: HEK cells
Procedure: as §1, §2

[7] = target: T3, α5 GABAA receptor (Homo sapiens, UniProt P18507+P31644); test: Modulation of GABA induced currents in HEK cells; type: cell-based; settings: 0.1 to 100 μM
T3 construct: expressed in transfected cells; host or cells: HEK cells
Procedure: as §1, §2

[8] = target: T4, α6 GABAA receptor (Homo sapiens, UniProt P18507+Q16445); test: Modulation of GABA induced currents in HEK cells; type: cell-based; settings: 0.1 to 100 μM
T4 construct: expressed in transfected cells; host or cells: HEK cells
Procedure: as §1, §2

[9] = target: T5, α3 GABAA receptor (Homo sapiens, UniProt P18507+P34903); test: Modulation of GABA induced currents in HEK cells; type: cell-based
T5 construct: expressed in transfected cells; host or cells: HEK cells
Procedure: as §1, §2

[10] = target: T6, α4 GABAA receptor (Homo sapiens, UniProt P18507+P48169); test: Modulation of GABA induced currents in HEK cells; type: cell-based; settings: 0.1 to 100 μM
T6 construct: expressed in transfected cells; host or cells: HEK cells
Procedure: as §1, §2

[11] = test system: mice; settings: doses as high as 60 mg/kg (Griebel et al., 1999); cited from earlier work
[12] = test system: high-alcohol drinking (HAD-1) rats; test: Operant self-administration, EtOH (and alternate-day sucrose); type: in vivo, rat
Procedure: Operant, Self-administration Apparatus, Training, and Drug Treatment Procedures Behavioral Testing Apparatus. Behavioral testing was conducted in 15 standard operant chambers (Coulbourn Instruments, Allentown, Pa.) equipped with two removable levers and two dipper fluid delivery systems enclosed in sound-attenuated cubicles as previously described (June et al., 1998b; 1998e). All dipper presentations provided a 1.5-sec access to a 0.1-ml dipper, followed by a 3-sec time out period. Above each lever, three stimulus lights (red, green and yellow) were present, and a stimulus delivery/reinforcer was indicated by illumination of the middle (green) stimulus light. Responses and reinforcements were recorded and controlled by a Dell computer using the 4.0 Coulbourn L2T2 operant software package.
HAD-1 Rats. To assess the capacity of βCCt to modulate EtOH responding in the VP, rats were trained to lever press for alcohol only (see below). However, an alternate-day access paradigm was employed to investigate the capacity of systemic injections of βCCt to modify EtOH and sucrose-maintained responding. […] In the VP study rats were initially trained to orally self-administer EtOH and water in daily 60 min sessions on a concurrent FRI schedule in a two-lever choice situation. After a period of stabilization on the FRI schedule, the response requirement was increased to a concurrent FR4 schedule and the water reinforcer was gradually eliminated from the protocol and replaced with EtOH. Thus, the VP HAD-1 rats responded concurrently for EtOH solutions on both levers. The VP HAD rats were then stabilized on this regimen for 3 weeks prior to any microinfusions. Responding was considered stable when responses were within ±20% of the average responses for five consecutive days.
Rats in, the systemic study were trained in a similar manner as the VP animals, except that after a 2 week stabilization period on the concurrently presented EtOH solutions, a series of preliminary studies were conducted to determine the sucrose concentration that produced response rates and profiles similar to that of EtOH during an alternate-day presentation schedule. Following this determination, rats were then stabilized on a regimen of 10% (v/v) EtOH on day 1, and 1% (w/v) sucrose on day 2. This alternate day paradigm continued until a two weeks. After this final stabilization period, the drug treatment phase began. Again, responding was considered stable when responses were within ±20% of the average responses for five consecutive days. The position of the levers and associated dippers for each reinforcer was alternated daily to control for the establishment of lever preference under all concurrent schedules when two different reinforcers were present.
βCCt was administered 15 min before the operant session to allow for optimal absorption and CNS distribution. βCCt was tested at doses of 1-40 mg/kg. The duration of the operant sessions was 60 min, however, subjects were tested at 24 and 48 hours post-drug administration to determine if any residual drug effects remained. A minimum of 72 and maximum of 96 hours was allocated between drug treatments to permit animals to return to baseline levels. This period prevented confounding of drug treatments due to residual effects. […] All systemic drug treatments were given in a randomized design.
The microinfusions were delivered immediately before the operant session with a Harvard infusion pump, during which time animals were able to move about freely in their home cages (for details see June et al., 2001). The injection cannula extended 1 mm beyond the tip of the guide cannulae. βCCt was dissolved in artificial cerebrospinal fluid (aCSF) (composition in mM: NaCl, 120; KCl, 4.8; KH2PO4, 1.2; MgSO4, 1.2; NaHCO3, 25; CaCl2, 2.5; d-glucose, 10). […]

T1 sequence (P47869 29-451): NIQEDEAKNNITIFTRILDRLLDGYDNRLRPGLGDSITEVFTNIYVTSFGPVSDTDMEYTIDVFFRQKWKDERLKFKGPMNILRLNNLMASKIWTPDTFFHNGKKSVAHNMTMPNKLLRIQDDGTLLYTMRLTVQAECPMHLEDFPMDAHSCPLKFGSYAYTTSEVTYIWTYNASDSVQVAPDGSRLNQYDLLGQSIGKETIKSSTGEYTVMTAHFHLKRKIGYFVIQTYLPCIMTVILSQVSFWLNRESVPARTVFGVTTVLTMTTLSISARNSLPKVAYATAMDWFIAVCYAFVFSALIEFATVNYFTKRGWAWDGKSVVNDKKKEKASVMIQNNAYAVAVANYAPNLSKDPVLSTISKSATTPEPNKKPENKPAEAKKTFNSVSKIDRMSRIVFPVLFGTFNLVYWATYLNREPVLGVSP
T1 sequence (P28472 26-473 partner): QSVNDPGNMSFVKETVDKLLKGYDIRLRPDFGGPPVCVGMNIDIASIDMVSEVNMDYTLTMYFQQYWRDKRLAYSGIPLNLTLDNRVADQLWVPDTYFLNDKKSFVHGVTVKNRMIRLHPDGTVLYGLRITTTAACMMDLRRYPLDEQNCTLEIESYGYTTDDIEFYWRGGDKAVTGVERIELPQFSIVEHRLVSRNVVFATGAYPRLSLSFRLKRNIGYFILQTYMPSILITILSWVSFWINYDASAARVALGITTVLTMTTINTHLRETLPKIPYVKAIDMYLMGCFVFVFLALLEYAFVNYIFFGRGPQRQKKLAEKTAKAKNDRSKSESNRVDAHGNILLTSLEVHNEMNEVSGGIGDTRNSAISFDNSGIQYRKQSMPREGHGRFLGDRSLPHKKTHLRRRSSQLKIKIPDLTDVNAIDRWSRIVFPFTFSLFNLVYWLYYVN
T1 sequence (P18507 40-475): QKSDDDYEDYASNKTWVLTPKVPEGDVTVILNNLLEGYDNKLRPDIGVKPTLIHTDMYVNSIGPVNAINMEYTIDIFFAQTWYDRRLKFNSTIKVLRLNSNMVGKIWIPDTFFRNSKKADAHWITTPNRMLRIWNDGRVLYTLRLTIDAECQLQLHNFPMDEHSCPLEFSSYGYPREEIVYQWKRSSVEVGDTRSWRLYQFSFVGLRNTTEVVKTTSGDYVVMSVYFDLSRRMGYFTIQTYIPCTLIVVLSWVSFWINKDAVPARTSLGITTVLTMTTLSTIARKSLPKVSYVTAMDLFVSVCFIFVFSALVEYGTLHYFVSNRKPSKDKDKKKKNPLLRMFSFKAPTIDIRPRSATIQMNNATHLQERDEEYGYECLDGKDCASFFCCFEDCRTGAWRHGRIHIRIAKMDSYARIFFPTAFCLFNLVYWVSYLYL
T4 sequence (Q16445 20-453): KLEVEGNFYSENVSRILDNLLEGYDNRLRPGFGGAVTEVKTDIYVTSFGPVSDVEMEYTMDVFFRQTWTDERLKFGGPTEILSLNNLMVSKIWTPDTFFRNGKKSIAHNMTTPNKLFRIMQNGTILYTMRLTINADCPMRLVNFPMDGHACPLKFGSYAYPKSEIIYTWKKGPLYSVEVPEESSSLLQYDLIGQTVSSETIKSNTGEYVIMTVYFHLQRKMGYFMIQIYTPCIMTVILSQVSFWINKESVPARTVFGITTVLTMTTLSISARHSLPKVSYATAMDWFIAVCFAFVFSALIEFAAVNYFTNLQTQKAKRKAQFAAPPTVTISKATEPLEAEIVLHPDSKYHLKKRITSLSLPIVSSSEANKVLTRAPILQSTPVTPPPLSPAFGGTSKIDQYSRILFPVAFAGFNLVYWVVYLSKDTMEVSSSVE
T4 sequence (P28472 26-473 partner): as the sequence (P28472 26-473 partner) above
T4 sequence (P18507 40-475): as the sequence (P18507 40-475) above
T3 sequence (P31644 32-462): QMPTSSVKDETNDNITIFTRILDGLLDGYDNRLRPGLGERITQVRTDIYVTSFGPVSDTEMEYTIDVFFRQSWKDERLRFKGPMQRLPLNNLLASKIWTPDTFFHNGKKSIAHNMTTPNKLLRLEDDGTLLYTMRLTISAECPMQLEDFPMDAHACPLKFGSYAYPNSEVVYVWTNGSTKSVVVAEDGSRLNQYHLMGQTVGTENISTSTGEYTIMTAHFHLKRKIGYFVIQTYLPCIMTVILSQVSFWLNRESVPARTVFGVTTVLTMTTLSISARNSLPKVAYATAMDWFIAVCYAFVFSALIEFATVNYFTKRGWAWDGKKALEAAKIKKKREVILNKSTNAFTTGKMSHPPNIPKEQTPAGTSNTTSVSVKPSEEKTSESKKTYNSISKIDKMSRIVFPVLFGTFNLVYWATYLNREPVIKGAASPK
T3 sequence (P28472 26-473 partner): as the sequence (P28472 26-473 partner) above
T3 sequence (P18507 40-475): as the sequence (P18507 40-475) above
T2 sequence (P14867 28-456): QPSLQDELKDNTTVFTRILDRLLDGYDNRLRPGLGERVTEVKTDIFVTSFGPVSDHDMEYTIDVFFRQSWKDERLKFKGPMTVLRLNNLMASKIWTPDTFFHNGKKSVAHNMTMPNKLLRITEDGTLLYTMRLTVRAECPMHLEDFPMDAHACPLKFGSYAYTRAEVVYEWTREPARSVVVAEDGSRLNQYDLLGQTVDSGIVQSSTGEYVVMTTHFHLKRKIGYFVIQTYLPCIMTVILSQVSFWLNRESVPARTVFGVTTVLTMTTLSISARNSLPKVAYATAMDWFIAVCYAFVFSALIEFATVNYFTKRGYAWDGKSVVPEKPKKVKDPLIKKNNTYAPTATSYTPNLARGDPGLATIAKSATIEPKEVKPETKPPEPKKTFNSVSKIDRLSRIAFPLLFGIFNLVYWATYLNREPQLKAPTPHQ
T2 sequence (P28472 26-473 partner): as the sequence (P28472 26-473 partner) above
T2 sequence (P18507 40-475): as the sequence (P18507 40-475) above
T5 sequence (P34903 29-492): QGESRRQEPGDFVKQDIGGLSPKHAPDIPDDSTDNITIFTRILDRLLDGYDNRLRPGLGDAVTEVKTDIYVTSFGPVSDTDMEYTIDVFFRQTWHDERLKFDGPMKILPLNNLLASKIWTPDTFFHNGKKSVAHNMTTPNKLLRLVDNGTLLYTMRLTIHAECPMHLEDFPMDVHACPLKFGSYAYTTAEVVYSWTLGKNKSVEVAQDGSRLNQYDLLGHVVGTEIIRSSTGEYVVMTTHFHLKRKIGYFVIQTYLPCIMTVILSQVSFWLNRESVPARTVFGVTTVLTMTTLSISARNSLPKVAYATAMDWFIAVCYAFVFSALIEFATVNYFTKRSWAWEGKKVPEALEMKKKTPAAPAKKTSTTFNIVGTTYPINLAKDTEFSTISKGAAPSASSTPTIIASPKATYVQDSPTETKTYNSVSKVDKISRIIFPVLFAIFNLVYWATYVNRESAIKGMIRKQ
T5 sequence (P28472 26-473 partner): as the sequence (P28472 26-473 partner) above
T5 sequence (P18507 40-475): as the sequence (P18507 40-475) above
T6 sequence (P48169 36-554): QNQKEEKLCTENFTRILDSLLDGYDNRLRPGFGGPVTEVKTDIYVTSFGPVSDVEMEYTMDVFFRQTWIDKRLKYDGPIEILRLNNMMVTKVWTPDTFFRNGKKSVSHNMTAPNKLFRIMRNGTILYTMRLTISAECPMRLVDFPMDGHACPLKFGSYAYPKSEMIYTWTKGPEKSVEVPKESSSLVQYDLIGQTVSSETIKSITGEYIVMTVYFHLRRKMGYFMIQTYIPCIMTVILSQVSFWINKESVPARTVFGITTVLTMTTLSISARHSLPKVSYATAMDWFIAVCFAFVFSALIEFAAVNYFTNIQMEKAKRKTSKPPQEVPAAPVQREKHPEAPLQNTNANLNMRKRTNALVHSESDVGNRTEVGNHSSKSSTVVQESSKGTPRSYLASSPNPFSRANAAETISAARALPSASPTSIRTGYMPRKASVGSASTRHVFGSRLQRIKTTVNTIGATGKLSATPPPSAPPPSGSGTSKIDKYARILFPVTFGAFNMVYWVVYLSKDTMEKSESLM
T6 sequence (P28472 26-473 partner): as the sequence (P28472 26-473 partner) above
T6 sequence (P18507 40-475): as the sequence (P18507 40-475) above

CCCOc1cc2c(cn1)[nH]c1ccccc12.Cl [3-PBC, 3-Propoxy-β-carboline hydrochloride]
% of GABA response, α2 [1]: 116±7% | % of GABA response, α4 [2]: 129±3% | IC50 [3]: 11 nM | activity in observational studies vs saline controls [4]: inactive

CC(C)(C)OC(=O)c1cc2c(cn1)[nH]c1ccccc12 [βCCt, β-carboline-3-carboxylate t-butyl ester]
activity at the α2 receptor in HEK cells ([5]; 0.1 to 100 μM): Strong agonist activity | intrinsic activity in HEK cells, α2 ([5]; 0.1 to 100 μM): Intrinsic activity is seen | concentration at which agonist-like effects occur, α2 ([5]; HEK cells): 50 to 100 µM | activity at the α1 receptor in HEK cells [6]: Agonist and inverse-agonist activity | intrinsic activity in HEK cells, α1 [6]: Intrinsic activity is seen | activity at the α5 receptor in HEK cells [7]: Agonist and inverse-agonist activity | intrinsic activity in HEK cells, α5 [7]: Intrinsic activity is seen | activity at the α6 receptor in HEK cells [8]: Minimal agonist activity | intrinsic activity in HEK cells, α6 [8]: Intrinsic activity is seen | activity at the α3 receptor in HEK cells ([9]; 0.1 to 100 μM): Strong agonist activity | concentration at which agonist-like effects occur, α3 ([9]; HEK cells): 50 to 100 µM | activity at the α4 receptor in HEK cells [10]: Moderate agonist activity | intrinsic activity in HEK cells, α4 [10]: Intrinsic activity is seen | intrinsic activity in the open field [11]: failed to produce intrinsic activity | dose required to reduce sucrose reinforcer compared to alcohol ([12]; i.p.): four-fold higher dose | sucrose-maintained responding ([12]; i.p. 10 mg/kg): marked suppression | EtOH-maintained responding ([12]; i.p. 1-10 mg/kg, alternate-day access): dose-dependently suppressed | reduction of EtOH responding 24 hr post-drug ([12]; unilateral VP infusion 2.5-7.5 μg, 24 hr post-drug administration): 54-63 % of control levels | EtOH-maintained responding ([12]; unilateral infusion 0.5-7.5 μg into VP): dose-dependently reduced | alcohol-maintained responding ([12]; unilateral infusion into CPu/NACC): completely ineffective
